Assay results reported in US9730937B2, “RAF kinase modulator compounds and methods of use thereof” (AMBIT BIOSCIENCES CORPORATION, priority 2008, dated 2017).
Like-named read-outs stand apart in the source and are kept apart here.

System: panel of 290 distinct kinases (321 in the larger panel), excluding mutant variants
[1] = no asterisk: panel of 290 distinct kinases
[2] = kinase selectivity score, 290 distinct kinases, class symbols
[3] = asterisk: panel of 321 distinct kinases

Description: The liganded beads were blocked with excess biotin and washed with blocking buffer (SeaBlock (Pierce), 1% BSA, 0.05% Tween 20, 1 mM DTT) to remove unbound ligand and to reduce non-specific binding. […] Test compounds were prepared as 100× stocks in DMSO and rapidly diluted into the aqueous environment. DMSO was added to control assays lacking a test compound. Primary screen interactions were performed in polypropylene 384-well plates in a final volume of 34 μL, while Kd determinations were performed in polystyrene 96-well plates in a final volume of 135 μL. […] The kinase concentration in the eluates was measured by quantitative PCR. Each kinase was tested individually against each compound. KdS were determined using eleven serial threefold dilutions. A selectivity score, which is a quantitative measure of selectivity of a compound against a panel of enzymes, may be calculated for a compound by dividing the number of enzymes for which a compound meets a set criteria, (for example, a binding constant of 100 nM or less), by the total number of enzymes tested. […] (Note, for those compounds tested in a larger kinase panel, as indicated by an asterisk (*) next to the S35 score, the divisor is 321 (i.e. the larger panel contains 321 distinct kinases, excluding mutant variants.)).

Row | SMILES | S35 [1] | further results
1 | COc1cc2ncnc(Oc3cccc(NC(=O)Nc4cc(C(C)(CF)CF)no4)c3)c2cc1OC [Ex 159, 1-[3-(1,3-difluoro-2-methylpropan-2-yl)isoxazol-5-yl]-3-[3-(6,7-dimethoxyquinazolin-4-yloxy]phenyl)urea] | – | S35 (kinase selectivity score, value marked * (larger kinase panel), class symbols): D* (D > 0.40)
2 | CCOc1cc2ncnc(Sc3cccc(NC(=O)Nc4cc(C(C)(C)F)no4)c3)c2cc1OC [Ex 389, 1-(3-(7-ethoxy-6-methoxyquinazolin-4-ylthio)phenyl)-3-(3-(2-fluoropropan-2-yl)isoxazol-5-yl)urea] | C (0.20 < C ≦ 0.40) | –
3 | COc1cc2ncnc(Oc3cc(NC(=O)Nc4cc(C(C)(C)C)nn4-c4ccc(C)cc4)c(F)cc3F)c2cc1OC [Ex 272, 1-(3-tert-butyl-1-p-tolyl-1H-pyrazol-5-yl)-3-(5-(6,7-dimethoxyquinazolin-4-yloxy)-2,4-difluorophenyl)urea] | D (D > 0.40) | –
4 | CCOc1cc2c(Oc3cccc(NC(=O)Nc4cc(C(C)(C)C(F)(F)F)on4)c3)ncnc2cc1OC [Ex 260, 1-(3-(6-ethoxy-7-methoxyquinazolin-4-yloxy)phenyl)-3-(5-(1,1,1-trifluoro-2-methylpropan-2-yl)isoxazol-3-yl)urea] | C (0.20 < C ≦ 0.40) | –
5 | COc1cc2ncnc(Oc3cc(NC(=O)Nc4cc(C(C)(C)C(F)(F)F)on4)ccc3F)c2cc1OC [Ex 266, 1-(3-(6,7-dimethoxyquinazolin-4-yloxy)-4-fluorophenyl)-3-(5-(1,1,1-trifluoro-2-methylpropan-2-yl)isoxazol-3-yl)urea] | C (0.20 < C ≦ 0.40) | –
6 | COCCOc1cc(NC(=O)Nc2cccc(Oc3ncnc4cc(OCCOC)c(OC)cc34)c2)cc(C(F)(F)F)c1 [Ex 117, 1-(3-(6-methoxy-7-(2-methoxyethoxy)quinazolin-4-yloxy)phenyl)-3-(3-(2-methoxyethoxy)-5-(trifluoromethyl)phenyl)urea] | – | S35 [2]: C (0.20 < C ≦ 0.40)
7 | COc1cc2ncnc(Oc3cccc(NC(=O)Nc4cc(C(F)(F)C(F)(F)F)nn4-c4ccccc4)c3)c2cc1OC [Ex 304, 1-(3-(6,7-dimethoxyquinazolin-4-yloxy)phenyl)-3-(3-(perfluoroethyl)-1-phenyl-1H-pyrazol-5-yl)urea] | C (0.20 < C ≦ 0.40) | –
8 | COc1cc2c(Oc3cccc(NC(=O)Nc4cc(C(C)(C)C)on4)c3)ncnc2cc1OCCCN1CCS(=O)(=O)CC1 [Ex 256, 1-(5-tert-butyl-isoxazol-3-yl)-3-(3-{7-[3-(1,1-dioxo-thiomorpholin-4-yl)-propoxy]-6-methoxy-quinazolin-4-yloxy}-phenyl)-urea] | D (D > 0.40) | –
9 | CCOc1cc2c(Sc3cccc(NC(=O)Nc4cc(C(C)(CF)CF)on4)c3)ncnc2cc1OC [Ex 395, 1-(5-(1,3-difluoro-2-methylpropan-2-yl)isoxazol-3-yl)-3-(3-(6-ethoxy-7-methoxyquinazolin-4-ylthio)phenyl)urea] | C (0.20 < C ≦ 0.40) | –
10 | COc1cc2ncnc(Sc3cccc(NC(=O)Nc4cccc(C(C)(C)C#N)c4)c3)c2cc1OC [Ex 279, 1-(3-(2-cyanopropan-2-yl)phenyl)-3-(3-(6,7-dimethoxyquinazolin-4-ylthio)phenyl)urea] | C (0.20 < C ≦ 0.40) | –
11 | COc1cc2c(Oc3cccc(NC(=O)Nc4cc(C(C)(C)C(F)(F)F)on4)c3)ncnc2cc1O [Ex 263, 1-(3-(7-hydroxy-6-methoxyquinazolin-4-yloxy)phenyl)-3-(5-(1,1,1-trifluoro-2-methylpropan-2-yl)isoxazol-3-yl)urea] | C (0.20 < C ≦ 0.40) | –
12 | COc1cc(NC(=O)Nc2cccc(Oc3ncnc4cc(OC)c(OC)cc34)c2)cc(C(F)(F)F)c1 [Ex 116, 1-(3-(6,7-dimethoxyquinazolin-4-yloxy)phenyl)-3-(3-methoxy-5-(trifluoromethyl)phenyl)urea] | – | S35 [2]: B (0.10 < B ≦ 0.20)
13 | COc1cc2ncnc(Sc3cccc(NC(=O)Nc4cc(C(C)(C)F)no4)c3)c2cc1OCCCN1CCS(=O)(=O)CC1 [Ex 245, 1-(3-(2-fluoropropan-2-yl)isoxazol-5-yl)-3-(3-(7-methoxy-6-(4,4-dioxo-3-thiomorpholinopropoxy)quinazolin-4-ylthio)phenyl)urea] | – | S35 [3]: C* (0.20 < C ≦ 0.40)
14 | COCCOc1cc2ncnc(Oc3cccc(NC(=O)Nc4cc(C(C)(CF)CF)nn4-c4ccccc4)c3)c2cc1OC [Ex 228, 1-[3-(1,3-difluoro-2-methylpropan-2-yl)-1-phenyl-1H-pyrazol-5-yl]-3-{3-[6-methoxy-7-(2-methoxyethoxy)quinazolin-4-yloxy]phenyl}urea] | – | S35 [3]: D* (D > 0.40)
15 | COc1cc2ncnc(Sc3cccc(NC(=O)Nc4cc(C(C)(C)C)nn4Cc4ccccc4)c3)c2cc1OC [Ex 358, 1-(1-benzyl-3-tert-butyl-1H-pyrazol-5-yl)-3-(3-(6,7-dimethoxyquinazolin-4-ylthio)phenyl)urea] | C (0.20 < C ≦ 0.40) | –
16 | COc1cc2ncnc(Sc3cccc(NC(=O)Nc4cc(C(C)(C)C)nn4-c4ccccc4C(F)(F)F)c3)c2cc1OC [Ex 375, 1-(3-tert-butyl-1-(2-(trifluoromethyl)phenyl)-1H-pyrazol-5-yl)-3-(3-(6,7-dimethoxyquinazolin-4-ylthio)phenyl)urea] | C (0.20 < C ≦ 0.40) | –

Row | SMILES | S35 [1] | further results
17 | COCCOc1cc2ncnc(Oc3cccc(NC(=O)Nc4cc(C(F)(F)F)nn4-c4ccc(C)cc4)c3)c2cc1OC [Ex 227, 1-{3-[6-methoxy-7-(2-methoxyethoxy)quinazolin-4-yloxy]phenyl}-3-[1-p-tolyl-3-(trifluoromethyl)-1H-pyrazol-5-yl]urea] | – | S35 [3]: C* (0.20 < C ≦ 0.40)
18 | CCOc1cc2ncnc(Oc3cccc(NC(=O)Nc4cc(C(C)(C)C)nn4-c4ccccc4)c3)c2cc1OC [Ex 387, 1-(3-tert-butyl-1-phenyl-1H-pyrazol-5-yl)-3-(3-(7-ethoxy-6-methoxyquinazolin-4-yloxy)phenyl)urea] | D (D > 0.40) | –
19 | COCCOc1cc2ncnc(Sc3cccc(NC(=O)Nc4cc(C(F)(F)F)nn4-c4ccc(F)cc4)c3)c2cc1OC [Ex 242, 1-[1-(4-fluorophenyl)-3-(trifluoromethyl)-1H-pyrazol-5-yl]-3-{3-[6-methoxy-7-(2-methoxyethoxy)quinazolin-4-ylthio]phenyl}urea] | – | S35 [3]: C* (0.20 < C ≦ 0.40)
20 | COc1cc2ncnc(Oc3cccc(NC(=O)Nc4cc(C(C)(C)C)nn4-c4ccccc4)c3F)c2cc1OC [Ex 295, 1-(3-tert-butyl-1-phenyl-1H-pyrazol-5-yl)-3-(3-(6,7-dimethoxyquinazolin-4-yloxy)-2-fluorophenyl)urea] | C (0.20 < C ≦ 0.40) | –
21 | COc1cc2ncnc(Sc3cccc(NC(=O)Nc4cc(C5(C(F)(F)F)CC5)on4)c3)c2cc1OC [Ex 378, 1-(3-(6,7-dimethoxyquinazolin-4-ylthio)phenyl)-3-(5-(1-(trifluoromethyl)cyclopropyl)isoxazol-3-yl)urea] | C (0.20 < C ≦ 0.40) | –
22 | COCCOc1cc2ncnc(Oc3cccc(NC(=O)Nc4cc(C(C)C)no4)c3)c2cc1OC [Ex 215, 1-(3-isopropylisoxazol-5-yl)-3-(3-(6-methoxy-7-(2-methoxyethoxy)quinazolin-4-yloxy)phenyl)urea] | – | S35 [3]: C* (0.20 < C ≦ 0.40)
23 | COc1cc2ncnc([S+]([O-])c3cccc(NC(=O)Nc4cc(C(C)(C)C)on4)c3)c2cc1OC (centres unmarked) [Ex 253, 1-(5-tert-butylisoxazol-3-yl)-3-(3-(6,7-dimethoxyquinazolin-4-ylsulfinyl)phenyl)urea] | C (0.20 < C ≦ 0.40) | –
24 | COCCOc1cc2ncnc(Oc3cccc(NC(=O)Nc4ccc(C(F)(F)F)c(OC)c4)c3)c2cc1OC [Ex 223, 1-(3-methoxy-4-(trifluoromethyl)phenyl)-3-(3-(6-methoxy-7-(2-methoxyethoxy)quinazolin-4-yloxy)phenyl)urea] | – | S35 [3]: C* (0.20 < C ≦ 0.40)
25 | COCCOc1cc2ncnc(Oc3cccc(NC(=O)Nc4cc(C(F)(F)F)n(-c5ccccc5)n4)c3)c2cc1OC [Ex 225, 1-{3-[6-methoxy-7-(2-methoxyethoxy)quinazolin-4-yloxy]phenyl}-3-[1-phenyl-5-(trifluoromethyl)-1H-pyrazol-3-yl]urea] | – | S35 [3]: C* (0.20 < C ≦ 0.40)
26 | COCCOc1cc2ncnc(Oc3cccc(NC(=O)Nc4cc(C5CCCC5)no4)c3)c2cc1OC [Ex 207, 1-(3-cyclopentylisoxazol-5-yl)-3-(3-(6-methoxy-7-(2-methoxyethoxy)quinazolin-4-yloxy)phenyl)urea] | – | S35 [3]: C* (0.20 < C ≦ 0.40)
27 | COCCOc1cc2ncnc(Sc3cccc(NC(=O)Nc4cc(C(C)(C)C)nn4-c4ccc(C)cc4)c3)c2cc1OC [Ex 277, 1-(3-tert-butyl-1-p-tolyl-1H-pyrazol-5-yl)-3-(3-(6-methoxy-7-(2-methoxyethoxy)quinazolin-4-ylthio)phenyl)urea] | D (D > 0.40) | –
28 | COc1cc2ncnc(Oc3cccc(NC(=O)Nc4cc(C(C)(C)C(F)(F)F)no4)c3)c2cc1OC [Ex 267, 1-(3-(6,7-dimethoxyquinazolin-4-yloxy)phenyl)-3-(3-(1,1,1-trifluoro-2-methylpropan-2-yl)isoxazol-5-yl)urea] | C (0.20 < C ≦ 0.40) | –
29 | COc1cc2ncnc(Oc3cccc(NC(=O)Nc4cc(C(C)(C)C)nn4-c4ccc(C)cc4C)c3)c2cc1OC [Ex 282, 1-(3-tert-butyl-1-(2,4-dimethylphenyl)-1H-pyrazol-5-yl)-3-(3-(6,7-dimethoxyquinazolin-4-yloxy)phenyl)urea] | C (0.20 < C ≦ 0.40) | –
30 | COc1cc2ncnc(Oc3cccc(NC(=O)Nc4cc(C(C)(C)C(F)(F)F)on4)c3)c2cc1O [Ex 264, 1-(3-(6-hydroxy-7-methoxyquinazolin-4-yloxy)phenyl)-3-(5-(1,1,1-trifluoro-2-methylpropan-2-yl)isoxazol-3-yl)urea] | C (0.20 < C ≦ 0.40) | –
31 | COc1cc2ncnc(Oc3cccc(NC(=O)Nc4cc(C(C)(C)C)nn4-c4ccccc4C(F)(F)F)c3)c2cc1OC [Ex 376, 1-(3-tert-butyl-1-(2-(trifluoromethyl)phenyl)-1H-pyrazol-5-yl)-3-(3-(6,7-dimethoxyquinazolin-4-yloxy)phenyl)urea] | D (D > 0.40) | –
32 | COc1cc2ncnc(Sc3cccc(NC(=O)Nc4cc(C(F)(F)F)no4)c3)c2cc1OC [Ex 382, 1-(3-(6,7-dimethoxyquinazolin-4-ylthio)phenyl)-3-(3-(trifluoromethyl)isoxazol-5-yl)urea] | C (0.20 < C ≦ 0.40) | –
